The target in data set [1] is T1, Gal-4 (Homo sapiens, UniProt P56470).
T1 construct: made in house; host or cells: Escherichia coli Rosetta (DE3) pLysS
T1 sequence (P56470 1-323): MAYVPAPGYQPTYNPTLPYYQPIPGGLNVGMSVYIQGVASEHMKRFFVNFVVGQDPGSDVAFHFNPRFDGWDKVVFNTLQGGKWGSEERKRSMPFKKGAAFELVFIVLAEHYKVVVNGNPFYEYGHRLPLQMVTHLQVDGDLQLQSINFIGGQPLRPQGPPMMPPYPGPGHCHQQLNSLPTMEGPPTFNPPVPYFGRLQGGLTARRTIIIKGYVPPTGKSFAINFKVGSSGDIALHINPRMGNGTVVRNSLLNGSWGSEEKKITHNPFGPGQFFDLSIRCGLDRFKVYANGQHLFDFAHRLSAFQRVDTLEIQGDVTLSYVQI
Put plainly: competitive ELISA, inhibition of binding of whole Gal-4 to immobilized ASF. Particulars: for IC50: competitive ELISA, Gal-4 2.5 µM, immobilized ASF; for rp, relative potency (IC50 (lactose)/IC50 (ligand)): whole Gal-4. On the procedure: (§1) To design the ELISA method, we first examined the direct binding of the whole Gal-4, Gal-4NL, and Gal-4-CL to standard glycoprotein asialofetuin (ASF, MW 48.4 kDa), which carries up to nine LacNAc epitopes. The ASF was immobilized by hydrophobic interaction in microtiter-plate wells, and the binding of increasing concentrations of Gal-4 proteins was quantified by colorimetric immunodetection using horseradish peroxidase conjugated to an anti-His-tag antibody. The apparent dissociation constants (KD) were calculated from the non-linear regression of the binding curves (Figure 3). […] While for the Gal-4 ELISA measurement we used the concentration of Gal-4 of 2.5 μM, for both subunits, it was 25 μM. […] The Gal-4 proteins were incubated with increasing concentrations of the respective inhibitors, and the concentration-dependent inhibition of the binding to the immobilized ASF was quantified using spectrophotometric colorimetric immunodetection (HRP-conjugated anti-His-tag antibody). The respective half-maximal inhibition constants (IC50) were calculated from the non-linear regression of the sigmoidal curves (Figure 3), and they are shown in Table 2 and Table 3.
(§2) Each incubation step was followed by washing the wells with 3 × 250 µL phosphate-buffered saline (PBS) containing 0.05% Tween® 20. In total, 0.1 µM ASF in PBS (50 µL/well) was coated onto microtiter plates (Nunc Immuno Sorb, ThermoFisher Scientific, Waltham, MA, USA) overnight. After blocking the wells with 2 mg/mL bovine serum albumin (BSA) in PBS buffer (250 µL/well, 1 h), serial dilutions of the inhibitors in PBS buffer containing 2 mM EDTA (EPBS) were incubated with Gal-4 (2.5 µM final dimer concentration) or its subunits, Gal-4CL and Gal-4NL (25 µM final monomer concentration) for 2 h (50 µL/well). The residual bound galectin was labeled with an anti-His-antibody conjugated with horseradish peroxidase (HRP) (Santa Cruz Biotechnology, Heidelberg, Germany; 1:999 dilution in PBS). The colorimetric reaction with TMB One substrate solution (Kem-En-Tec, Taastrup, Denmark; 50 µL/well) was stopped with 3 M hydrochloric acid (HCl) (50 µL/well) and quantified spectrophotometrically at 450 nm (Sunrise; Tecan Group Ltd., Männedorf, Switzerland). The values of half-maximal inhibitory concentrations (IC50) were calculated by non-linear regression (dose–response inhibition-variable slope) of sigmoidal curves from a minimum of three independent experiments using GraphPad Prism 8.4.3 (GraphPad Software, San Diego, CA, USA).
(ELISA stands for enzyme-linked immunosorbent assay.)

The next data set has as its target Gal-4N. More on the design: method as in PMID 26828567, PMID 26077389. Particulars: fluorescence anisotropy, read-out: binding constant; cited from earlier work. (Fluorescence polarisation rises when a labelled molecule tumbles more slowly, as on binding a larger partner.)
The target of data set [2] is T2, Gal-4NL (Homo sapiens, UniProt P56470).
T2 construct: designated as Gal-4NL (aa 1-160), and Gal-4CL (aa 169-323), respectively; made in house; host or cells: E. coli Rosetta (DE3) pLysS
T2 sequence (P56470 1-160): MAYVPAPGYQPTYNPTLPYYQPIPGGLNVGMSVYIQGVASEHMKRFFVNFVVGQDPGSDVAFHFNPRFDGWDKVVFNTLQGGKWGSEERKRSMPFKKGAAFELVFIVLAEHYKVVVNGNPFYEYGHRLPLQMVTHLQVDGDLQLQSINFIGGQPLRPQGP
Put plainly: competitive ELISA, inhibition of binding of Gal-4NL subunit to immobilized ASF. Particulars: for IC50: competitive ELISA, Gal-4NL 25 µM, immobilized ASF. On the procedure: as §1, §2

Data set [3] has as its target T3, Gal-4CL (Homo sapiens, UniProt P56470).
T3 construct: designated as Gal-4NL (aa 1-160), and Gal-4CL (aa 169-323), respectively; made in house; host or cells: E. coli Rosetta (DE3) pLysS
T3 sequence (P56470 169-323): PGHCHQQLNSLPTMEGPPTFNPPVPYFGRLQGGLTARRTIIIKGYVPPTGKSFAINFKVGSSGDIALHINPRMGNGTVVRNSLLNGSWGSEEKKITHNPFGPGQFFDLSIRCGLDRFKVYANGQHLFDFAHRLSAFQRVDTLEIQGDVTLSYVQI
Put plainly: competitive ELISA, inhibition of binding of Gal-4CL subunit to immobilized ASF. The following applies: for IC50: competitive ELISA, Gal-4CL 25 µM, immobilized ASF. On the procedure:
as §1, §2

In another data set the target is Gal-4C. Also noted: method as in PMID 26828567, PMID 26077389. The following applies: fluorescence anisotropy, read-out: binding constant; cited from earlier work.
In data set [4] the target is Gal-4NL. Also noted: method as in PMID 33968903. The following applies: ITC; cited from earlier work.
In data set [5] the target is T2, Gal-4NL. Put plainly: direct ELISA, binding of Gal-4NL to immobilized ASF. Particulars: read-out: apparent KD. The procedure:
(§3) To design the ELISA method, we first examined the direct binding of the whole Gal-4, Gal-4NL, and Gal-4-CL to standard glycoprotein asialofetuin (ASF, MW 48.4 kDa), which carries up to nine LacNAc epitopes. The ASF was immobilized by hydrophobic interaction in microtiter-plate wells, and the binding of increasing concentrations of Gal-4 proteins was quantified by colorimetric immunodetection using horseradish peroxidase conjugated to an anti-His-tag antibody. The apparent dissociation constants (KD) were calculated from the non-linear regression of the binding curves (Figure 3). […] The Gal-4 proteins were incubated with increasing concentrations of the respective inhibitors, and the concentration-dependent inhibition of the binding to the immobilized ASF was quantified using spectrophotometric colorimetric immunodetection (HRP-conjugated anti-His-tag antibody). The respective half-maximal inhibition constants (IC50) were calculated from the non-linear regression of the sigmoidal curves (Figure 3), and they are shown in Table 2 and Table 3.
(§4) The apparent dissociation constant (KD) of binding of the whole Gal-4 or its subunits to ASF was determined using direct enzyme-linked immunosorbent assay (ELISA), with washing steps as specified above. […] Residual galectins bound to the wells were labeled with anti-His-antibody conjugated with HRP, and evaluated as above.

The target in data set [6] is T3, Gal-4CL. Put plainly: direct ELISA, binding of Gal-4CL to immobilized ASF. The following applies: read-out: apparent KD. On the procedure:
as §3, §4

Data set [7] deals with T1, Gal-4. Put plainly: direct ELISA, binding of whole Gal-4 to immobilized ASF. The following applies: read-out: apparent KD. On the procedure: as §3, §4
Data set [8] deals with the molecule itself. Put plainly: dynamic light scattering; Gal-4 and its subunits at 25 µM, 25 °C, Zetasizer Nano S90; size distribution by intensity and by volume.
Data set [9] deals with T4, asialofetuin (standard glycoprotein, MW 48.4 kDa) (UniProt P12763 19-359, glycoprotein without sialic acid; carries up to nine LacNAc epitopes).
T4 construct: Asialofetuin (desialylated fetuin), MW 48.4 kDa; Commercial asialofetuin is commonly from fetal calf serum; also called ASF
T4 sequence (looked up): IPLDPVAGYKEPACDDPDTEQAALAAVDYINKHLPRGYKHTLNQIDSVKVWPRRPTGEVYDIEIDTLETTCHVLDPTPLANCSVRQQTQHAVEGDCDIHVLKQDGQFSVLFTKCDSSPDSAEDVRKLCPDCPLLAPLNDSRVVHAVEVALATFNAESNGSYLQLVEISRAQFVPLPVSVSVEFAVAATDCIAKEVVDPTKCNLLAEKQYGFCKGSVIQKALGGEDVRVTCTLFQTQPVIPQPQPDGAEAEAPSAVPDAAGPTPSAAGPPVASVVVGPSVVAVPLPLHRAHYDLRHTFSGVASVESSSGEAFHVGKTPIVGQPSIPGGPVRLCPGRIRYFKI
Put plainly: ELISA; direct ELISA; ASF (0.1 µM in PBS) coated on microtiter plate overnight, blocked with BSA; increasing concentrations of Gal-4 or its subunits, 2 h; detected with HRP-conjugated anti-His antibody; apparent KD from non-linear regression. Particulars: both partners purified.

The target of data set [10] is T5, lactosyl-decorated neo-glycoprotein 12 (human serum albumin carrier) (human, UniProt P02768 25-609, 9.6 lactosyl residues (MALDI-TOF, 72,151 Da) attached by a thiourea linker and diethyl-squarate linkage; sites not stated).
T5 construct: Human serum albumin, carrier of the synthetic lactosyl ligands; source: HSA coupled with squarate monoamide ester 11 (tetraborate buffer pH 9.0, 72 h), washed with water by ultracentrifugation
T5 sequence (P02768 25-609): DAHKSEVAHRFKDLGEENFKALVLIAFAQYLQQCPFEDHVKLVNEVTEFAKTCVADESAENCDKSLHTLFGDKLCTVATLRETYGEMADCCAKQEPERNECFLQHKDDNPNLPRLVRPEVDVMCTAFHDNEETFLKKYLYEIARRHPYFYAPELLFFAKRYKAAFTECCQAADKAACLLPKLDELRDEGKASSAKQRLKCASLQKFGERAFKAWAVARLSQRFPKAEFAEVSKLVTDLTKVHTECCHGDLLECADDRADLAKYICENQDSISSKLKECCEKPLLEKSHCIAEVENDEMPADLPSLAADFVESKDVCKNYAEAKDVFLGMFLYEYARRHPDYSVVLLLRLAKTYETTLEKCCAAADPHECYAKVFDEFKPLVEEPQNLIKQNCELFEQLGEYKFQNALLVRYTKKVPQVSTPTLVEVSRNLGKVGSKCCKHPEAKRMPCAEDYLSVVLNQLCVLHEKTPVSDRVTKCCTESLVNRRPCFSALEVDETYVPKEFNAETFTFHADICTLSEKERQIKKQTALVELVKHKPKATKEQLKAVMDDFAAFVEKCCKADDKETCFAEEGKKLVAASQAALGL
Put plainly: BLI; His-tagged galectins (2 µg/mL, PBS with 0.05% Tween-20) immobilised on Ni-NTA biosensors; serially diluted neo-glycoprotein 12 in solution; 25 °C, 800 rpm; steady-state analysis. Particulars: both partners purified. On the technique in general: Biolayer interferometry detects binding as a change in optical thickness at a sensor tip.

As for `CC(=O)N[C@H]1[C@@H](O[C@H]2[C@@H](O)[C@@H](CO)O[C@@H](O[C@H]3[C@H](O)[C@@H](O)C(O)O[C@@H]3CO)[C@@H]2O[C@@H]2O[C@@H](C)[C@@H](O)[C@@H](O)[C@@H]2O)O[C@H](CO)[C@H](O)[C@@H]1O` (stereo partly drawn) [blood-group antigen A (5), blood-group antigen A type 6], the concentration for half-maximal inhibition (IC50) at Gal-4 [1] was determined as 50 ± 20 µM; on Gal-4NL [2], 22 ± 1 µM; on Gal-4CL [3], 27 ± 5 µM. In addition, the “rp, relative potency (IC50 (lactose)/IC50 (ligand))” value at Gal-4 [1] is 48. The figures for the Kd at Gal-4N, at Gal-4C and at Gal-4NL [4] were 164 µM, 75 µM and 86 µM, respectively. In addition, the “rp Gal-4NL, relative potency (IC50 (lactose)/IC50 (ligand))” value on Gal-4NL [2] (Gal-4NL) came to 130. The “fold stronger inhibitor of Gal-4NL than blood-group antigen B” value on Gal-4NL [2] (Gal-4NL, ELISA) is recorded as 12 fold. Also, the “rp Gal-4CL, relative potency (IC50 (lactose)/IC50 (ligand))” value on Gal-4CL [3] is recorded as 320.

As to `C[C@@H]1O[C@@H](O[C@H]2[C@H](O[C@H]3[C@H](O)[C@@H](O)C(O)O[C@@H]3CO)O[C@H](CO)[C@H](O)[C@@H]2O[C@H]2O[C@H](CO)[C@H](O)[C@H](O)[C@H]2O)[C@@H](O)[C@H](O)[C@@H]1O` (stereo partly drawn) [blood-group antigen B (6), blood-group antigen B type 6], on Gal-4 [1], the 50% inhibitory concentration (IC50) worked out at 80 ± 30 µM and the “rp, relative potency (IC50 (lactose)/IC50 (ligand))” value is listed as 31. The “rp Gal-4NL, relative potency (IC50 (lactose)/IC50 (ligand))” value on Gal-4NL [2] (Gal-4NL) was 11. In addition, the concentration for half-maximal inhibition (IC50) at Gal-4NL [2] stood at 260 ± 10 µM. Further, on Gal-4CL [3], the “rp Gal-4CL, relative potency (IC50 (lactose)/IC50 (ligand))” value was 28 and the 50% inhibitory concentration (IC50) is 300 ± 30 µM. The Kd on Gal-4NL [4] was 51 µM.

With asialofetuin [ASF], the Kd was 38 ± 3 µM in the data set with Gal-4NL [5], 19 ± 2 µM with Gal-4CL [6] and 3.3 ± 1.1 µM in the data set with Gal-4 [7].

B1: C-terminal subunit of Gal-4 with 10 linker residues (Gal-4CL, aa 169-323) (domain or fragment, human, UniProt P56470 169-323, looked up)
chain: PGHCHQQLNSLPTMEGPPTFNPPVPYFGRLQGGLTARRTIIIKGYVPPTGKSFAINFKVGSSGDIALHINPRMGNGTVVRNSLLNGSWGSEEKKITHNPFGPGQFFDLSIRCGLDRFKVYANGQHLFDFAHRLSAFQRVDTLEIQGDVTLSYVQI
notes: Galectin-4, human, C-terminal CRD (aa 179-323) with 10 further residues of the inter-domain linker at the N-terminus (aa 169-323); made by PCR from the Gal-4 plasmid, NdeI/XhoI; not shown: His6, N-terminal, kept
As to B1, the binding result in data set [8] was “binds”. The Kd in [9] amounted to 19 ± 2 µM.

B2: N-terminal subunit of Gal-4 with 10 linker residues (Gal-4NL, aa 1-160) (domain or fragment, human, UniProt P56470 1-160, looked up)
chain: MAYVPAPGYQPTYNPTLPYYQPIPGGLNVGMSVYIQGVASEHMKRFFVNFVVGQDPGSDVAFHFNPRFDGWDKVVFNTLQGGKWGSEERKRSMPFKKGAAFELVFIVLAEHYKVVVNGNPFYEYGHRLPLQMVTHLQVDGDLQLQSINFIGGQPLRPQGP
notes: Galectin-4, human, N-terminal CRD (aa 1-150) with 10 further residues of the inter-domain linker at the C-terminus (aa 1-160); made by PCR from the Gal-4 plasmid, NdeI/XhoI; not shown: His6, N-terminal, kept
Regarding B2, the figures for the Kd in data set [9] and in [10] were 38 ± 3 µM and 1 ± 0.2 µM, respectively.

As a reminder, the IC50 is the midpoint of a concentration-inhibition curve. A higher IC50 goes with a need for much substance.
